pEC50: −log10 of the molar value. The source made the active and inactive calls. The calls are words filed in the database; no cut-off is given here. Non-standard residues stand in square brackets, D forms with d. Residues, ends and D or L forms follow the SMILES beside them. NMeR = CN[C@@H](CCCNC(=N)N)C(=O)O; NMeF = CN[C@@H](Cc1ccccc1)C(=O)O; NMeT = CN[C@H](C(=O)O)[C@@H](C)O; NMeN = CN[C@@H](CC(N)=O)C(=O)O; NMeL = CN[C@@H](CC(C)C)C(=O)O; NMeS = CN[C@@H](CO)C(=O)O
Columns and labels:
Streptococcus mutans [1] = experiment: Agonist activity at Streptococcus mutans SAB249 ComD receptor assessed as increase in cipB expression at 10 uM after 1 hr by beta-galactosidase reporter gene assay relative to control
Streptococcus mutans [2] = experiment: Antagonist activity at Streptococcus mutans SAB249 ComD receptor assessed as inhibition of 18-CSP-induced cipB expression at 10 uM after 1 hr by beta-galactosidase reporter gene assay
Streptococcus mutans [3] = experiment: Activation of comD quorum sensing system in Streptococcus mutans SMCC3 harboring comC deletion mutant assessed as reduction in inhibition zone of Streptococcus anginosus ATCC 33397 at 5 to 100 nM preincubated for 4 hrs followed by Streptococcus anginosus ATCC 33397 addition and measured after 24 hrs
[4] = Agonist activity at Streptococcus mutans SAB249 ComD receptor assessed as increase in cipB expression after 1 hr by beta-galactosidase reporter gene assay
Streptococcus mutans [5] = experiment: (§1) Activation of comD quorum sensing system in Streptococcus mutans SMCC3 harboring comC deletion mutant assessed as reduction in inhibition zone of Streptococcus anginosus ATCC 33397 at 0.25 nM preincubated for 4 hrs followed by Streptococcus anginosus ATCC 33397 addition and measured after 24 hrs
Streptococcus mutans [6] = experiment: as §1, with “0.25 to 1” for “0.25”

| Molecule | Activity (Streptococcus mutans [1]) | inhibition (Streptococcus mutans [2]) | other results |
| --- | --- | --- | --- |
| CC(C)C[C@H](NC(=O)[C@H](CCCNC(=N)N)NC(=O)[C@H](Cc1ccccc1)NC(=O)[C@H](Cc1ccccc1)NC(=O)[C@@H](NC(=O)[C@H](CO)NC(=O)[C@H](CC(C)C)NC(=O)[C@@H](N)CO)[C@@H](C)O)C(=O)N[C@@H](Cc1ccccc1)C(=O)N[C@@H](CC(N)=O)C(=O)N[C@@H](CCCNC(=N)N)C(=O)N[C@@H](CO)C(=O)N[C@@H](Cc1ccccc1)C(=O)N(C)[C@H](C(=O)N[C@@H](CCC(N)=O)C(=O)N[C@@H](C)C(=O)O)[C@@H](C)O (H-SLSTFFRLFNRSF[NMeT]QA-OH) | 38% | inactive |  |
| CC(C)C[C@H](NC(=O)[C@H](CCCNC(=N)N)NC(=O)[C@H](Cc1ccccc1)NC(=O)[C@H](Cc1ccccc1)NC(=O)[C@@H](NC(=O)[C@H](CO)NC(=O)[C@H](CC(C)C)NC(=O)[C@@H](N)CO)[C@@H](C)O)C(=O)N[C@@H](Cc1ccccc1)C(=O)N[C@@H](CC(N)=O)C(=O)N[C@@H](CCCNC(=N)N)C(=O)N[C@@H](CO)C(=O)N(C)[C@@H](Cc1ccccc1)C(=O)N[C@H](C(=O)N[C@@H](CCC(N)=O)C(=O)N[C@@H](C)C(=O)O)[C@@H](C)O (H-SLSTFFRLFNRS[NMeF]TQA-OH) | 17% | inactive |  |
| CC(C)C[C@H](NC(=O)[C@H](CCCNC(=N)N)NC(=O)[C@H](Cc1ccccc1)NC(=O)[C@H](Cc1ccccc1)NC(=O)[C@@H](NC(=O)[C@H](CO)NC(=O)[C@H](CC(C)C)NC(=O)[C@@H](N)CO)[C@@H](C)O)C(=O)N[C@@H](Cc1ccccc1)C(=O)N[C@@H](CC(N)=O)C(=O)N[C@@H](CCCNC(=N)N)C(=O)N(C)[C@@H](CO)C(=O)N[C@@H](Cc1ccccc1)C(=O)N[C@H](C(=O)N[C@@H](CCC(N)=O)C(=O)N[C@@H](C)C(=O)O)[C@@H](C)O (H-SLSTFFRLFNR[NMeS]FTQA-OH) | 12% | inactive |  |
| CC(C)C[C@H](NC(=O)[C@H](CCCNC(=N)N)NC(=O)[C@H](Cc1ccccc1)NC(=O)[C@H](Cc1ccccc1)NC(=O)[C@@H](NC(=O)[C@H](CO)NC(=O)[C@H](CC(C)C)NC(=O)[C@@H](N)CO)[C@@H](C)O)C(=O)N[C@@H](Cc1ccccc1)C(=O)N[C@@H](CC(N)=O)C(=O)N(C)[C@@H](CCCNC(=N)N)C(=O)N[C@@H](CO)C(=O)N[C@@H](Cc1ccccc1)C(=O)N[C@H](C(=O)N[C@@H](CCC(N)=O)C(=O)N[C@@H](C)C(=O)O)[C@@H](C)O (H-SLSTFFRLFN[NMeR]SFTQA-OH) | 5% | inactive | inhibition (Streptococcus mutans [3]): Active |
| CC(C)C[C@H](NC(=O)[C@H](CCCNC(=N)N)NC(=O)[C@H](Cc1ccccc1)NC(=O)[C@H](Cc1ccccc1)NC(=O)[C@@H](NC(=O)[C@H](CO)NC(=O)[C@H](CC(C)C)NC(=O)[C@@H](N)CO)[C@@H](C)O)C(=O)N[C@@H](Cc1ccccc1)C(=O)N(C)[C@@H](CC(N)=O)C(=O)N[C@@H](CCCNC(=N)N)C(=O)N[C@@H](CO)C(=O)N[C@@H](Cc1ccccc1)C(=O)N[C@H](C(=O)N[C@@H](CCC(N)=O)C(=O)N[C@@H](C)C(=O)O)[C@@H](C)O (H-SLSTFFRLF[NMeN]RSFTQA-OH) | 11% | inactive |  |
| CC(C)C[C@H](NC(=O)[C@@H](N)CO)C(=O)N[C@@H](CO)C(=O)N[C@H](C(=O)N[C@@H](Cc1ccccc1)C(=O)N[C@@H](Cc1ccccc1)C(=O)N[C@@H](CCCNC(=N)N)C(=O)N[C@@H](CC(C)C)C(=O)N(C)[C@@H](Cc1ccccc1)C(=O)N[C@@H](CC(N)=O)C(=O)N[C@@H](CCCNC(=N)N)C(=O)N[C@@H](CO)C(=O)N[C@@H](Cc1ccccc1)C(=O)N[C@H](C(=O)N[C@@H](CCC(N)=O)C(=O)N[C@@H](C)C(=O)O)[C@@H](C)O)[C@@H](C)O (H-SLSTFFRL[NMeF]NRSFTQA-OH) | 0% | inactive | inhibition (Streptococcus mutans [3]): Active |
| CC(C)C[C@H](NC(=O)[C@@H](N)CO)C(=O)N[C@@H](CO)C(=O)N[C@H](C(=O)N[C@@H](Cc1ccccc1)C(=O)N[C@@H](Cc1ccccc1)C(=O)N[C@@H](CCCNC(=N)N)C(=O)N(C)[C@@H](CC(C)C)C(=O)N[C@@H](Cc1ccccc1)C(=O)N[C@@H](CC(N)=O)C(=O)N[C@@H](CCCNC(=N)N)C(=O)N[C@@H](CO)C(=O)N[C@@H](Cc1ccccc1)C(=O)N[C@H](C(=O)N[C@@H](CCC(N)=O)C(=O)N[C@@H](C)C(=O)O)[C@@H](C)O)[C@@H](C)O (H-SLSTFFR[NMeL]FNRSFTQA-OH) | 29% | inactive |  |
| CC(C)C[C@H](NC(=O)[C@@H](N)CO)C(=O)N[C@@H](CO)C(=O)N[C@H](C(=O)N[C@@H](Cc1ccccc1)C(=O)N[C@@H](Cc1ccccc1)C(=O)N(C)[C@@H](CCCNC(=N)N)C(=O)N[C@@H](CC(C)C)C(=O)N[C@@H](Cc1ccccc1)C(=O)N[C@@H](CC(N)=O)C(=O)N[C@@H](CCCNC(=N)N)C(=O)N[C@@H](CO)C(=O)N[C@@H](Cc1ccccc1)C(=O)N[C@H](C(=O)N[C@@H](CCC(N)=O)C(=O)N[C@@H](C)C(=O)O)[C@@H](C)O)[C@@H](C)O (H-SLSTFF[NMeR]LFNRSFTQA-OH) | 45% | inactive |  |
| CC(C)C[C@H](NC(=O)[C@H](CCCNC(=N)N)NC(=O)[C@H](Cc1ccccc1)NC(=O)[C@H](Cc1ccccc1)NC(=O)[C@H]([C@@H](C)O)N(C)C(=O)[C@H](CO)NC(=O)[C@H](CC(C)C)NC(=O)[C@@H](N)CO)C(=O)N[C@@H](Cc1ccccc1)C(=O)N[C@@H](CC(N)=O)C(=O)N[C@@H](CCCNC(=N)N)C(=O)N[C@@H](CO)C(=O)N[C@@H](Cc1ccccc1)C(=O)N[C@H](C(=O)N[C@@H](CCC(N)=O)C(=O)N[C@@H](C)C(=O)O)[C@@H](C)O (H-SLS[NMeT]FFRLFNRSFTQA-OH) |  |  | pEC50 [4]: < 6.00 |
| H-GSLSAFFRAFNAAFTAA-OH |  |  | inhibition (Streptococcus mutans [3]): Active; inhibition (Streptococcus mutans [5]): Active |
| H-GSLSAFFRAFNAAFTQA-OH |  |  | inhibition (Streptococcus mutans [3]): Active; inhibition (Streptococcus mutans [5]): Active |
| H-GSLSTFFRLFNRSFTQA-OH |  |  | pEC50 [4]: 8.32 |
| H-SGSLSTFFRLFNRSFTQA-OH | 100% |  | pEC50 [4]: 8.21; inhibition (Streptococcus mutans [6]): inactive |
| H-SLSTFFRLFNRSFTQA-OH | 100% |  | pEC50 [4]: 8.10 |

Reference: ChEMBL document CHEMBL4422668 (Bioorg Med Chem Lett, 2019)
